Each structure is given as a SMILES string.

This is an account of results in patent EP0056114A1, “Pyridylamino benzoic acids, their preparation and use” (C.H. BOEHRINGER SOHN, priority 1981, dated 1982).

For the test, the system named is Ratte. The experiment in a line: PCA test in the rat, oral administration. The settings on record: factor by which the ED50 is lower than that of Verbindung A (no absolute ED50 printed). In kind it is in vivo.

With `CC(C)c1ccc(Nc2ccc(C(=O)O)cc2C(=O)O)nc1`, the “Fold lower ED50 than compound A (rat PCA test, oral)” value was “ca. 100 mal”.
